Assay results reported in patent publication US7482456B2, “8-(3-Biaryl)phenylquinoline phosphodiesterase-4 inhibitors” (Merck Frosst Canada, priority 2003, dated 2009).

Molecular target: T1, human recombinant phosphodiesterase IVa (met-248) (Homo sapiens, UniProt P27815)
T1 construct: human recombinant phosphodiesterase IVa (met-248); made in house; host or cells: baculovirus/Sf-9
Experiment: SPA based PDE activity assay
Assay type: biochemical
Conditions: 100 nM cAMP; purified GST fusion protein of human recombinant PDE IVa (met-248), baculovirus/Sf-9
Description: Compounds which inhibit the hydrolysis of cAMP to AMP by the type-IV cAMP-specific phosphodiesterases were screened in a 96-well plate format as follows:
In a 96 well-plate at 30° C. was added the test compound (dissolved in 2 μL DMSO), […] of substrate buffer containing [2,8-^3H] adenosine 3′,5′-cyclic phosphate (cAMP, 100 nM to 50 μM), 10 mM MgCl2, 1 mM EDTA, 50 mM Tris, pH 7.5. The reaction was initiated by the addition of […] of human recombinant PDE4 (the amount was controlled so that ˜10% product was formed in 10 min.). The reaction was stopped after 10 min. by the addition of 1 mg of PDE-SPA beads (Amersham Pharmacia Biotech, Inc., Piscataway, N.J.). The product AMP generated was quantified on a Wallac Microbeta® 96-well plate counter (EG&G Wallac Co., Gaithersburg, Md.). The signal in the absence of enzyme was defined as the background. 100% activity was defined as the signal detected in the presence of enzyme and DMSO with the background subtracted. Percentage of inhibition was calculated accordingly. IC50 value was approximated with a non-linear regression fit using the standard 4-parameter/multiple binding sites equation from a ten point titration.

T1 sequence (P27815 248-886 limits assumed): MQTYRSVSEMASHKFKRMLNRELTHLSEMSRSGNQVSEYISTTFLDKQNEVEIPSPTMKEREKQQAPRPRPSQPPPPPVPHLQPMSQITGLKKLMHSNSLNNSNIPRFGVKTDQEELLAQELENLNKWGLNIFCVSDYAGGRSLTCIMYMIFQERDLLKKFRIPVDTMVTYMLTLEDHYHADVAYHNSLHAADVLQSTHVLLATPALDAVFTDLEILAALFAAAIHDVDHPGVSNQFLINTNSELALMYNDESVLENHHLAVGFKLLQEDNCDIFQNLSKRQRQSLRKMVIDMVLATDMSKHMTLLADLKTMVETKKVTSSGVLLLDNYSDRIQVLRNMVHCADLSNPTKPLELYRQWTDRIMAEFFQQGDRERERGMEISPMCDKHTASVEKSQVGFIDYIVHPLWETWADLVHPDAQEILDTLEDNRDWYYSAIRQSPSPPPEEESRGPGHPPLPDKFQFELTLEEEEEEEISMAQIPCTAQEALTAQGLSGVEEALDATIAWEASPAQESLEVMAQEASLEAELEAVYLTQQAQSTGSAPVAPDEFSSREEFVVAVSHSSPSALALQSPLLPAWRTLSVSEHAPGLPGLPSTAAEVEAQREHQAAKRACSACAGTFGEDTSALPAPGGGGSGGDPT

Structure (SMILES) | IC50 [nM]
CC(C)(c1cc(-c2cccc(-c3sc(-c4cccc(Cl)c4)nc3-c3ccc(S(C)(=O)=O)cc3)c2)c2ncccc2c1)S(C)(=O)=O [Example 1, 8-(3-{2-(3-chlorophenyl)-4-[4-(methylsulfonyl)phenyl]-1,3-thiazol-5-yl}phenyl)-6-[1-methyl-1-(methylsulfonyl)ethyl]quinoline] | 0.3
CC(C)(c1cc(-c2cccc(-c3sc(-c4cccc(S(C)(=O)=O)c4)nc3-c3ccc(S(C)(=O)=O)cc3)c2)c2ncccc2c1)S(C)(=O)=O [Example 41] | 1
CC(C)(O)c1cccc(-c2nc(-c3ccc(S(C)(=O)=O)cc3)c(-c3cccc(-c4cc(C(C)(C)S(C)(=O)=O)cc5cccnc45)c3)s2)c1 [Example 69, 2-(3-{5-(3-{6-[1-methyl-1-(methylsulfonyl)ethyl]quinolin-8-yl}phenyl)-4-[4-(methylsulfonyl)phenyl]-1,3-thiazol-2-yl}phenyl)propan-2-ol] | 0.6
CC(C)(O)c1nc(-c2cccc(-c3cc(C(C)(C)S(C)(=O)=O)cc4cccnc34)c2)c(-c2ccc(S(C)(=O)=O)cc2)s1 [Example 78, 2-{4-(3-{6-[1-methyl-1-(methylsulfonyl)ethyl]quinolin-8-yl}phenyl)-5-[4-(methylsulfonyl)phenyl]-1,3-thiazol-2-yl}propan-2-ol] | 0.4
CC(O)(c1ccc(Cl)cc1)c1nc(-c2cccc(-c3cc(C(C)(C)S(C)(=O)=O)cc4cccnc34)c2)c(-c2ccc(S(C)(=O)=O)cc2)s1 (centres unmarked) [Example 82, 1-(4-chlorophenyl)-1-{4-(3-{6-[1-methyl-1-(methylsulfonyl)ethyl]quinolin-8-yl}phenyl)-5-[4-(methylsulfonyl)phenyl]-1,3-thiazol-2-yl}ethanol] | 3.1
CC(C)(O)c1cccc(-c2nc(-c3ccc(F)c(Cl)c3)c(-c3cccc(-c4cc(C(C)(C)S(C)(=O)=O)cc5cccnc45)c3)s2)c1 [Example 88, 2-{3-[4-(3-chloro-4-fluorophenyl)-5-(3-{6-[1-methyl-1-(methylsulfonyl)ethyl]quinolin-8-yl}phenyl)-1,3-thiazol-2-yl]phenyl}propan-2-ol] | 1.6
CC(C)(O)c1nc(-c2cccc(-c3cc(C(C)(C)S(C)(=O)=O)cc4cccnc34)c2)c(-c2ccc(Cl)cc2)s1 [Example 94, 2-[5-(4-chlorophenyl)-4-(3-{6-[1-methyl-1-(methylsulfonyl)ethyl]quinolin-8-yl}phenyl)-1,3-thiazol-2-yl]propan-2-ol] | 4.3

Next, values leading:

IC50 [nM] | Structure (SMILES)
4.1 | Cc1noc(-c2cc(-c3cccc(-c4cc(C(C)(C)S(C)(=O)=O)cc5cccnc45)c3)c[n+]([O-])c2)n1 [Example 100, 6-[1-methyl-1-(methylsulfonyl)ethyl]-8-{3-[5-(3-methyl-1,2,4-oxadiazol-5-yl)-1-oxidopyridin-3-yl]phenyl}quinoline]
2.2 | Cn1nnc(-c2cc(-c3cccc(-c4cc(C(C)(C)S(C)(=O)=O)cc5cccnc45)c3)c[n+]([O-])c2)n1 [Example 115, 6-[1-methyl-1-(methylsulfonyl)ethyl]-8-{3-[5-(2-methyl-2H-tetraazol-5-yl)-1-oxidopyridin-3-yl]phenyl}quinoline]
1.7 | CC(C)(O)c1ccc(-c2nc(-c3ccc(S(C)(=O)=O)cc3)c(-c3cccc(-c4cc(C(C)(C)S(C)(=O)=O)cc5cccnc45)c3)s2)cc1 [Example 157, 2-(4-{5-(3-{6-[1-methyl-1-(methylsulfonyl)ethyl]quinolin-8-yl}phenyl)-4-[4-(methylsulfonyl)phenyl]-1,3-thiazol-2-yl}phenyl)propan-2-ol]
0.4 | CC(C)(O)c1nc(-c2ccc(S(C)(=O)=O)cc2)c(-c2cccc(-c3cc(C(=O)NC4CC4)cc4cccnc34)c2)s1 [Example 167, N-cyclopropyl-8-(3-{2-(1-hydroxy-1-methylethyl)-4-[4-(methylsulfonyl)phenyl]-1,3-thiazol-5-yl}phenyl)quinoline-6-carboxamide]
